# Experimental data from ChEMBL document CHEMBL5212743, “Selectivity Literature for EUbOPEN Chemogenomics Library wave 3” (2023).
# Tests used:
# [1] = biological target: T1, Muscarinic acetylcholine receptor M2 (Homo sapiens) (UniProt P08172); test: Selectivity interaction (CEREP panel (nuclear receptors, ion channels, and […] other enzymes, including 10 kinases, 9 proteases, and 5 phosphodiesterases)) EUB0000195c CHRM2; conditions: at 10 µM
# T1 sequence (whole entry): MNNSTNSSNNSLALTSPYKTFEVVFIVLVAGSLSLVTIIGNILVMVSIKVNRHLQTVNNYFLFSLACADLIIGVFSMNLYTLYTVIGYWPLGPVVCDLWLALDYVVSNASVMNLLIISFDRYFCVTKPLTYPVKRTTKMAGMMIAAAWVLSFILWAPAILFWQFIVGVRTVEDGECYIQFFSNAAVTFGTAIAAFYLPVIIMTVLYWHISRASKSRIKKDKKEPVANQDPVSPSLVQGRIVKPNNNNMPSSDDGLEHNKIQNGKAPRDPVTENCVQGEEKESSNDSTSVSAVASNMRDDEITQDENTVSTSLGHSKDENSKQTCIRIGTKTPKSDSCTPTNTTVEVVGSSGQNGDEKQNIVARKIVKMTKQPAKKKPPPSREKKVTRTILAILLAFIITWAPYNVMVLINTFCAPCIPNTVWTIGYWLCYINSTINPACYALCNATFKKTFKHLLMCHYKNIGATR
# [2] = biological target: T2, Alpha-1A adrenergic receptor (Homo sapiens) (UniProt P35348); test: Selectivity interaction (CEREP panel (nuclear receptors, ion channels, and […] other enzymes, including 10 kinases, 9 proteases, and 5 phosphodiesterases)) EUB0000195c ADRA1A; conditions: at 10 µM
# T2 sequence (whole entry): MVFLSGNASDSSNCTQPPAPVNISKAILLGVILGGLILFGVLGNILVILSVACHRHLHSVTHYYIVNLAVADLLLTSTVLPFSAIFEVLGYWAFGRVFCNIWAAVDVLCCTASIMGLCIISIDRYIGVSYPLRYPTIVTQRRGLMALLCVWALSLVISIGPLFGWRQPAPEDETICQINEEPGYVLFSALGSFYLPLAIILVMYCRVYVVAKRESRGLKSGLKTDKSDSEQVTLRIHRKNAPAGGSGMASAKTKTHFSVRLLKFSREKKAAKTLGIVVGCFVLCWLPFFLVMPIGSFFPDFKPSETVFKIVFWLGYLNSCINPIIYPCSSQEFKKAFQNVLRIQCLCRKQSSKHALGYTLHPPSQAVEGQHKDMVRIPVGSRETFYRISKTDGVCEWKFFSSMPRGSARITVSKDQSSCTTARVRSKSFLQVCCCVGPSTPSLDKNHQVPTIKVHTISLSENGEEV
# [3] = biological target: Bromodomain-containing protein 2 (Homo sapiens) (UniProt P25440); test: Selectivity interaction (Bromodomain panel (DSF assay)) EUB0000195c BRD2
# [4] = biological target: Bromodomain-containing protein 3 (Homo sapiens) (UniProt Q15059); test: Selectivity interaction (Bromodomain panel (DSF assay)) EUB0000195c BRD3
# [5] = biological target: T3, Bromodomain-containing protein 4 (Homo sapiens, UniProt O60885); test: (§1) Selectivity interaction (Bromodomain panel (DSF assay)) EUB0000195c BRD4
# [6] = biological target: T3, Bromodomain-containing protein 4; test: as §1; remark: listed apart in the source
# [7] = biological target: T3, Bromodomain-containing protein 4; test: Selectivity interaction (ITC) EUB0000195c BRD4
# [8] = biological target: Histone acetyltransferase p300 (Homo sapiens) (UniProt Q09472); test: Selectivity interaction (DSF assay) EUB0000195c EP300
# CREB-binding protein [9] = biological target: T4, CREB-binding protein (Homo sapiens, UniProt Q92793)
# CREB-binding protein [10] = biological target: T4, CREB-binding protein; remark: listed apart in the source
# Target sequence in this assay (Q92793 2-2442 limits assumed): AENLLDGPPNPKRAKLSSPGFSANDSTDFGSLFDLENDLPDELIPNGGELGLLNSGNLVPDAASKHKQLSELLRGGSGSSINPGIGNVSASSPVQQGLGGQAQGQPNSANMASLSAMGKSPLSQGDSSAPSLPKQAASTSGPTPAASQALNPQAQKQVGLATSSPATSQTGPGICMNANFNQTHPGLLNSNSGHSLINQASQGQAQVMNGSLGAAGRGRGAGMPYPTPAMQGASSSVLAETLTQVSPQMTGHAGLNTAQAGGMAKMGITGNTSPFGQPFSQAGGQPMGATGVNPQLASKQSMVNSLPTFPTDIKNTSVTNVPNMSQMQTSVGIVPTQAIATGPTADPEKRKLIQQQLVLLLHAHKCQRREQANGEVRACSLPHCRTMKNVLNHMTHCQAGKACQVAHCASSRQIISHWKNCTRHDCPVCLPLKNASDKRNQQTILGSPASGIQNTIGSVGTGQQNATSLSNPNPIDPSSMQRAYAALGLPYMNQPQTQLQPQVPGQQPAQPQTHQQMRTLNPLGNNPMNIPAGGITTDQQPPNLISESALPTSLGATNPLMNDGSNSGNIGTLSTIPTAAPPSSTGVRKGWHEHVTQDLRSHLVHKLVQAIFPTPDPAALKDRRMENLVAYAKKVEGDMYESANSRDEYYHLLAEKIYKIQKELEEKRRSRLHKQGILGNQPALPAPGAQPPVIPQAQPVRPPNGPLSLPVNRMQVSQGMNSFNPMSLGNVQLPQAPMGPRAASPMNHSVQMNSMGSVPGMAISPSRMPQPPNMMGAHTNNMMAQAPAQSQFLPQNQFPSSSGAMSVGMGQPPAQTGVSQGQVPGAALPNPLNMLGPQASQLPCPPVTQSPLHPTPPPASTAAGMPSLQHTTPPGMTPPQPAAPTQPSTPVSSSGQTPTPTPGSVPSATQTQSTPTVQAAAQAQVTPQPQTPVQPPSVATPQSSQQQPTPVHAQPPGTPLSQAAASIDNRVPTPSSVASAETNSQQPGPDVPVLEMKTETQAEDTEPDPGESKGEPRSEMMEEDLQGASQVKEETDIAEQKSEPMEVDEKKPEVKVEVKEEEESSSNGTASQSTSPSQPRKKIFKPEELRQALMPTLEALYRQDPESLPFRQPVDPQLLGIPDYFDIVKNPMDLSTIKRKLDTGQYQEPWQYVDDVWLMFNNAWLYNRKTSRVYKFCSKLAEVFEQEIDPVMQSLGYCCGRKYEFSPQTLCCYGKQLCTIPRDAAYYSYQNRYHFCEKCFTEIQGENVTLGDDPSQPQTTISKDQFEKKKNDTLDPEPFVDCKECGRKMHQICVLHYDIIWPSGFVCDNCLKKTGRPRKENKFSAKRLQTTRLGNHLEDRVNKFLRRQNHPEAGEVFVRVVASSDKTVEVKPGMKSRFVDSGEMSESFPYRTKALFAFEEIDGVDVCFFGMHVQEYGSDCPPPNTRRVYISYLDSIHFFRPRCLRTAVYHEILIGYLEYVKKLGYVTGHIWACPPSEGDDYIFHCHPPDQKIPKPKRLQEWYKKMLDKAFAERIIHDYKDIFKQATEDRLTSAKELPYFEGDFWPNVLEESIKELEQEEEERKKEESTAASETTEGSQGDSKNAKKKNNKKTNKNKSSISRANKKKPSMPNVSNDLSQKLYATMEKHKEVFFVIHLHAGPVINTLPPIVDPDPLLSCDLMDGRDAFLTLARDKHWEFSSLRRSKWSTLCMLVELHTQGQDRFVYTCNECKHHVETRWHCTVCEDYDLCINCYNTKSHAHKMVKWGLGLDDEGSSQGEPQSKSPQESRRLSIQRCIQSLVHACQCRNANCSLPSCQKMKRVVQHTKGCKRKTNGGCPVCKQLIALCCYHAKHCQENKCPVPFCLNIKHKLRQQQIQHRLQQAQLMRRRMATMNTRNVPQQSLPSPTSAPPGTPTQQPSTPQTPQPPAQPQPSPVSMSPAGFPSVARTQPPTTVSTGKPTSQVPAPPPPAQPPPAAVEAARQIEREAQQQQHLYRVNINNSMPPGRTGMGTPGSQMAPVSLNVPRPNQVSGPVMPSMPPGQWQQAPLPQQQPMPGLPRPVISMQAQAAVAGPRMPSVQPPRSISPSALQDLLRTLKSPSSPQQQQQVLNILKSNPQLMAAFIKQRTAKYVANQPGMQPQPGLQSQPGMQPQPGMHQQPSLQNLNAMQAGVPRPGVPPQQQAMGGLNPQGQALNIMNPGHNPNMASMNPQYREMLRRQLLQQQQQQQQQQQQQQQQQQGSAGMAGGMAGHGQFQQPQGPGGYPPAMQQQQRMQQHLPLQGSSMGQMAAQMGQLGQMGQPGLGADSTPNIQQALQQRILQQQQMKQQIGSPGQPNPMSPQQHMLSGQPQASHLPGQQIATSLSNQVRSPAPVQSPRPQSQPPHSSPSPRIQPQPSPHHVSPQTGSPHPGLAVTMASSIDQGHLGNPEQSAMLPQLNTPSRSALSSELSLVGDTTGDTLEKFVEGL
# [11] = biological target: T3, Bromodomain-containing protein 4; test: Selectivity interaction (ITC) EUB0000205c BRD4
# [12] = biological target: T5, Adenosine receptor A1 (Homo sapiens) (UniProt P30542); conditions: at 10 µM
# T5 sequence (whole entry): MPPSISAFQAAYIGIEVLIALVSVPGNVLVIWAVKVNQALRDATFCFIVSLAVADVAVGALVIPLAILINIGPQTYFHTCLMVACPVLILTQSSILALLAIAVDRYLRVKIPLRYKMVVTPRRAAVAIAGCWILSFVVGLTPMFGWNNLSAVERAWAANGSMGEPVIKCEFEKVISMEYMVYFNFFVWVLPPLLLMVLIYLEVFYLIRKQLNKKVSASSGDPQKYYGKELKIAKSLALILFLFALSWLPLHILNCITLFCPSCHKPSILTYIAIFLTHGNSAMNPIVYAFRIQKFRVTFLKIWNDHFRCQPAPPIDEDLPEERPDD
# [13] = biological target: Kappa-type opioid receptor (Homo sapiens, UniProt P41145); conditions: at 10 µM
# [14] = biological target: Sodium-dependent noradrenaline transporter (Homo sapiens, UniProt P23975); conditions: at 10 µM
# [15] = biological target: Dual specificity protein kinase CLK2 (Homo sapiens, UniProt P49760); test: Selectivity interaction (NanoBRET assay (HEK293T cells)) EUB0000009b CLK2
# [16] = biological target: Dual specificity tyrosine-phosphorylation-regulated kinase 1B (Homo sapiens, UniProt Q9Y463); test: Selectivity interaction (NanoBRET assay (HEK293T cells)) EUB0000009b DYRK1B
# [17] = biological target: Dual specificity tyrosine-phosphorylation-regulated kinase 2 (Homo sapiens, UniProt Q92630); test: Selectivity interaction (NanoBRET assay (HEK293T cells)) EUB0000009b DYRK2
# [18] = biological target: Dual specificity tyrosine-phosphorylation-regulated kinase 1A (Homo sapiens, UniProt Q13627); test: Selectivity interaction (NanoBRET assay (HEK293T cells)) EUB0000009b DYRK1A
# Activated CDC42 kinase 1 = Activated CDC42 kinase 1 (Homo sapiens, UniProt Q07912); test: Selectivity interaction (Z’-LYTE assay (SelectScreen Invitrogen)) EUB0000690a TNK2
# [19] = biological target: Leukocyte tyrosine kinase receptor (Homo sapiens, UniProt P29376); test: Selectivity interaction (Z’-LYTE assay (SelectScreen Invitrogen)) EUB0000690a LTK
# [20] = biological target: Epidermal growth factor receptor (Homo sapiens, UniProt P00533, L858R); test: (§2) Selectivity interaction (Z’-LYTE assay (SelectScreen Invitrogen)) EUB0000690a EGFR
# [21] = biological target: Epidermal growth factor receptor (Homo sapiens, UniProt P00533, T790M); test: as §2
# Focal adhesion kinase 1 = Focal adhesion kinase 1 (Homo sapiens, UniProt Q05397); test: Selectivity interaction (Z’-LYTE assay (SelectScreen Invitrogen)) EUB0000690a PTK2
# [22] = biological target: Protein-tyrosine kinase 2-beta (Homo sapiens, UniProt Q14289); test: Selectivity interaction (Z’-LYTE assay (SelectScreen Invitrogen)) EUB0000690a PTK2B
# [23] = biological target: Tyrosine-protein kinase Fer (Homo sapiens, UniProt P16591); test: Selectivity interaction (Z’-LYTE assay (SelectScreen Invitrogen)) EUB0000690a FER
# [24] = biological target: Tyrosine-protein kinase Fes/Fps (Homo sapiens, UniProt P07332); test: Selectivity interaction (Z’-LYTE assay (SelectScreen Invitrogen)) EUB0000690a FES
# [25] = biological target: Tyrosine-protein kinase JAK2 (Homo sapiens, UniProt O60674); test: Selectivity interaction (Z’-LYTE assay (SelectScreen Invitrogen)) EUB0000690a JAK2
# [26] = biological target: Tyrosine-protein kinase FRK (Homo sapiens, UniProt P42685); test: Selectivity interaction (Z’-LYTE assay (SelectScreen Invitrogen)) EUB0000690a FRK
# [27] = biological target: High affinity nerve growth factor receptor (Homo sapiens, UniProt P04629); test: Selectivity interaction (Z’-LYTE assay (SelectScreen Invitrogen)) EUB0000690a NTRK1
# [28] = biological target: NT-3 growth factor receptor (Homo sapiens, UniProt Q16288); test: Selectivity interaction (Z’-LYTE assay (SelectScreen Invitrogen)) EUB0000690a NTRK3
# [29] = biological target: Sigma non-opioid intracellular receptor 1 (Homo sapiens, UniProt Q99720); test: Selectivity interaction (GPCR panel (PDSP screen)) EUB0000103c SIGMAR1
# [30] = biological target: Sigma intracellular receptor 2 (Homo sapiens, UniProt Q5BJF2); test: Selectivity interaction (GPCR panel (PDSP screen)) EUB0000103c TMEM97
# [31] = biological target: Sodium channel protein type 2 subunit alpha (Homo sapiens, UniProt Q99250); conditions: at 10 µM
# [32] = biological target: RNA 5'-monophosphate methyltransferase (Homo sapiens) (UniProt Q7Z5W3); conditions: at 50 µM
# [33] = biological target: Histone-arginine methyltransferase CARM1 (Homo sapiens) (UniProt Q86X55)
# [34] = biological target: Protein arginine N-methyltransferase 6 (Homo sapiens, UniProt Q96LA8)
# [35] = biological target: Sodium-dependent dopamine transporter (Homo sapiens, UniProt Q01959); test: Selectivity interaction (GPCR panel (PDSP screen)) EUB0000717a SLC6A3
# [36] = biological target: T6, Cyclin-G-associated kinase (Homo sapiens) (UniProt O14976); test: Selectivity interaction (KinomeScan (DiscoverX)) EUB0000717a GAK; conditions: at 1 µM
# T6 sequence (whole entry): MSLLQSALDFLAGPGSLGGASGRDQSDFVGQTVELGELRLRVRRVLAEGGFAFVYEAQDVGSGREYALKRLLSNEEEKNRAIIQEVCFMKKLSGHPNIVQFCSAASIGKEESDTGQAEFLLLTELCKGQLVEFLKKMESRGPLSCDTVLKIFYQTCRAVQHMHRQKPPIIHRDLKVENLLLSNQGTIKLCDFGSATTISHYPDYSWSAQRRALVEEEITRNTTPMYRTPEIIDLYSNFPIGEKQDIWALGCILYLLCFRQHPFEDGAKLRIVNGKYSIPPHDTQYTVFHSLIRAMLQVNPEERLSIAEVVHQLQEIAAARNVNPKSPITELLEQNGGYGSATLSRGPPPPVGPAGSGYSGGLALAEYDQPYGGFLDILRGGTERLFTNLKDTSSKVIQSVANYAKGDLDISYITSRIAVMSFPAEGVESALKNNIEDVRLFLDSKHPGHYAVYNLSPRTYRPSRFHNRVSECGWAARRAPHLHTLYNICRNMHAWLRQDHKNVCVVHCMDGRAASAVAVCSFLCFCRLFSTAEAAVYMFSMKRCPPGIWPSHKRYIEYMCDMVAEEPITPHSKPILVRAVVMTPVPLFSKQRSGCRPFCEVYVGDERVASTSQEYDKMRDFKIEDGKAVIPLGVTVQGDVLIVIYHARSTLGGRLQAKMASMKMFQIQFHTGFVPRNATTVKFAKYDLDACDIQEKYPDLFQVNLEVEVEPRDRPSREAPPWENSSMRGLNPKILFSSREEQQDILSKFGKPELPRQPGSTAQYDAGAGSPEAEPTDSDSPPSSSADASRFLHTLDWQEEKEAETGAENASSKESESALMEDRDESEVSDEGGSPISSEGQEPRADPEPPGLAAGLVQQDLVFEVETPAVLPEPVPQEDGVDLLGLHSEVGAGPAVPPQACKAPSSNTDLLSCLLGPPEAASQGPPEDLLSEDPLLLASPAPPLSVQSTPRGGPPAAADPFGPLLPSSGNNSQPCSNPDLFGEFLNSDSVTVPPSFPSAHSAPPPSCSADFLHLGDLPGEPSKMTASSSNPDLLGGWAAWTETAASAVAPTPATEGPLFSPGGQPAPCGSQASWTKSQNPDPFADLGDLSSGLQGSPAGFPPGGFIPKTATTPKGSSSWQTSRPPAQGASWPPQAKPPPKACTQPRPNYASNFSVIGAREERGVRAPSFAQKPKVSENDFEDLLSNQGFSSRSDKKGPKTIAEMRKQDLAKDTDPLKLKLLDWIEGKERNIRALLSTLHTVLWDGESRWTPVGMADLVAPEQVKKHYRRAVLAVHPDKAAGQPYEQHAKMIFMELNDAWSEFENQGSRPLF
# [37] = biological target: BMP-2-inducible protein kinase (Homo sapiens) (UniProt Q9NSY1); test: Selectivity interaction (KinomeScan (DiscoverX)) EUB0000717a BMP2K; conditions: at 1 µM
# NT-3 growth factor receptor, sequence (Q16288 whole entry): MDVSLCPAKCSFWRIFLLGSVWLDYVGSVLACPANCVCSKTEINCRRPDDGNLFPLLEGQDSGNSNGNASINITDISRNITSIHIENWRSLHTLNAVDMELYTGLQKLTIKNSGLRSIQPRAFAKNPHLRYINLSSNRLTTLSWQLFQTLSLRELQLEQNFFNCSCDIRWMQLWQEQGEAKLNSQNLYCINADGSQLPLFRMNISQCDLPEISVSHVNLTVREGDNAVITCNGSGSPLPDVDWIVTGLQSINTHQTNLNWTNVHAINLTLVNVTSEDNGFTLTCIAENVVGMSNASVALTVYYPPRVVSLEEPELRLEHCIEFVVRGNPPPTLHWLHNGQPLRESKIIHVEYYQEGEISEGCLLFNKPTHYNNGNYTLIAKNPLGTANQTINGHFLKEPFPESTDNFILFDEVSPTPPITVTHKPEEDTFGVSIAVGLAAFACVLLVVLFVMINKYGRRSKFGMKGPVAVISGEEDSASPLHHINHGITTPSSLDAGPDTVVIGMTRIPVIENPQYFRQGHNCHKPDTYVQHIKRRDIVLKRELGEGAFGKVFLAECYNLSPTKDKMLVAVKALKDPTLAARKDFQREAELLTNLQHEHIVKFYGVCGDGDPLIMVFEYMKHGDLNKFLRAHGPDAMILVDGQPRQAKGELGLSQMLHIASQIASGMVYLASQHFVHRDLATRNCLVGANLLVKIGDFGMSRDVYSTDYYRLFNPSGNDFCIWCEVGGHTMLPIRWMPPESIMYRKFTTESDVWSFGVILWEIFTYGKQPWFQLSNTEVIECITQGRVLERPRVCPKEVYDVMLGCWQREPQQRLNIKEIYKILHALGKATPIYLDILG
# Histone-arginine methyltransferase CARM1 (Homo sapiens), sequence (Q86X55 whole entry): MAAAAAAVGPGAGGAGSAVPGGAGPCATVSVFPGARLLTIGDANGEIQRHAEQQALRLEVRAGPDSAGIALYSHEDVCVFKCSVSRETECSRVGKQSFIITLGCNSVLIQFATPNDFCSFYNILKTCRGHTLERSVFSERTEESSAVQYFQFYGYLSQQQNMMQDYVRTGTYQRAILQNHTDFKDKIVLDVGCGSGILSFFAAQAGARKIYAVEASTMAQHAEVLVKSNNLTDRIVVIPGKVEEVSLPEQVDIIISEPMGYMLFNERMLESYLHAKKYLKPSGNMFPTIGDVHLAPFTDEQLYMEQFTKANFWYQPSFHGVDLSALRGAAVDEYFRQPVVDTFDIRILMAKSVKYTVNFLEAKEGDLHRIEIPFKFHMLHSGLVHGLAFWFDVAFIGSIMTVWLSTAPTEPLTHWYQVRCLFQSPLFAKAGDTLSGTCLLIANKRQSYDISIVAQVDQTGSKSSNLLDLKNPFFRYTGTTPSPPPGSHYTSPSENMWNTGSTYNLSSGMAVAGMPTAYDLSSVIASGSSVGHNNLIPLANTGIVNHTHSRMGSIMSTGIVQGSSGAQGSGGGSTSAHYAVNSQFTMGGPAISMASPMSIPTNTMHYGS
# Sigma intracellular receptor 2, sequence (Q5BJF2 whole entry): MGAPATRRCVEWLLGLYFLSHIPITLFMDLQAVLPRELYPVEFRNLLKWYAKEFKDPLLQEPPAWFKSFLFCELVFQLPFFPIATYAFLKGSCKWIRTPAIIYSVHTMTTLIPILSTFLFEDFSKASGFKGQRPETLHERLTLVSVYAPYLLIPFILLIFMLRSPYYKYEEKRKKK
# Focal adhesion kinase 1, sequence (Q05397 whole entry): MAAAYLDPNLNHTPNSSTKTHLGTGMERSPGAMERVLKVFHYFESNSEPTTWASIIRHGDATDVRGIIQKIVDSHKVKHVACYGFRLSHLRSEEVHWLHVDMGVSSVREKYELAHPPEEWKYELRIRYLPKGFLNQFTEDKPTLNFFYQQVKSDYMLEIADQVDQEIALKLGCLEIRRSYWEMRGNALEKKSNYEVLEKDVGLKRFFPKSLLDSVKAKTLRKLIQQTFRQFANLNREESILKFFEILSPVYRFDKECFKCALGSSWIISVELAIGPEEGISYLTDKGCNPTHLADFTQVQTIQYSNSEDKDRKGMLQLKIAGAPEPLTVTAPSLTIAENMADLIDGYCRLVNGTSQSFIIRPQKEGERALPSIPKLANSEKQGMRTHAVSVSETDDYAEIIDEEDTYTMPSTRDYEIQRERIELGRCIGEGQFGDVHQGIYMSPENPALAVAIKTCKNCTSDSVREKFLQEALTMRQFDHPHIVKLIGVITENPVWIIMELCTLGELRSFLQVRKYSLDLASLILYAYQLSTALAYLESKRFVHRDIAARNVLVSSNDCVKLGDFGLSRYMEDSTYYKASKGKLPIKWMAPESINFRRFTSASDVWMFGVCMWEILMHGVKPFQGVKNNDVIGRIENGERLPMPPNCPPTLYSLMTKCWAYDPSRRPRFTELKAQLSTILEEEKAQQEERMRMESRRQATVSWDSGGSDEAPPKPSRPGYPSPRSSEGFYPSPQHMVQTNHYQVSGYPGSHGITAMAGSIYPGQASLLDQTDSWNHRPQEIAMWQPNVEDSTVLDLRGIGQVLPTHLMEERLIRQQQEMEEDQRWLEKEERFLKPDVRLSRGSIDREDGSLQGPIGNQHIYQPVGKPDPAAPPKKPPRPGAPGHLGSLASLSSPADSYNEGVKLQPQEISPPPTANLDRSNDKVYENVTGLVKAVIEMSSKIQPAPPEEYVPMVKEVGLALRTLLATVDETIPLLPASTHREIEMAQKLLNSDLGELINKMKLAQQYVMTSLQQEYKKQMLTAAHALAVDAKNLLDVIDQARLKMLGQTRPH
smiles,measurement,setting,value
CCC(=O)N1CCOc2c(cc(-c3ccc(OC)c(OC)c3)cc2OC[C@H]2CCCN(C)C2)C1,% of inhibition,[1],67%
same,% of inhibition,[2],89%
same,dTm,[3],1.35 K
same,dTm,[4],1.55 K
same,dTm,[5],2.09 K
same,dTm,[6],0.58 K
same,Kd,[7],> 20000 nM
same,dTm,[8],8.6 K
same,Kd,CREB-binding protein [9],170 nM
same,dTm,CREB-binding protein [10],7.8 K
COc1cc(C#N)ccc1S(=O)(=O)Nc1ccc2c(c1)cc(C)c(=O)n2C,Kd,[11],3900 nM
same,mean % of control,[12],62%
same,mean % of control,[13],80%
same,mean % of control,[14],61%
Cn1cc(-c2ccc3occ(-c4ccccc4-c4ccccc4)c3n2)cn1,Ki,[15],> 10000 nM
same,Ki,[16],> 10000 nM
same,Ki,[17],> 10000 nM
same,Ki,[18],> 10000 nM
C[C@H]1Oc2cc(cnc2N)-c2c(nn(C)c2C#N)CN(C)C(=O)c2ccc(F)cc21 [LORLATINIB],Ki,Activated CDC42 kinase 1,17 nM
same,Ki,[19],2.7 nM
same,Ki,[20],56 nM
same,Ki,[21],319 nM
same,Ki,Focal adhesion kinase 1,17 nM
same,Ki,[22],14 nM
same,Ki,[23],3.3 nM
same,Ki,[24],6 nM
same,Ki,[25],529 nM
same,Ki,[26],53 nM
same,Ki,[27],24 nM
same,Ki,[28],46 nM
CNCCN1CCC(OCc2ccccc2)CC1,Ki,[29],54 nM
same,Ki,[30],574 nM
same,inhibition,[31],31%
same,% activity remaining,[32],78%
same,dTm,[33],3.3 K
same,dTm,[34],11.3 K
O=C1c2ccc(Nc3ccc(F)cc3F)cc2CCc2ccc(OC[C@H](O)CO)cc21 [Skepinone-L],Ki,[35],> 10000 nM
same,% of control,[36],53%
same,% of control,[37],37%
